Data on five compounds can be found in article PMC8072719, “Synthesis and Antiproliferative Activity of Triazoles Based on 2-Azabicycloalkanes” (Materials, 2021).

Assay [1] deals with MIA PaCa-2. The assay is described as follows: Growth inhibition assay (SRB assay), pancreatic tumor cell line MIA PaCa-2. The class given is cell-based, human. The note with it: Homo sapiens, mean ± SD. Here is the method:
(§1) Three human cancer cell lines were used to evaluate the antiproliferative activity of the obtained compounds: melanoma cell line Hs294T, pancreatic tumor cell line MIA PaCa-2, and lung tumor cell line NCI-H1581. The normal mouse fibroblasts cell line (BALB/3T3 clone A31) was selected as reference. All these lines were purchased from the ATCC (American Type Culture Collection, Rockville, MD, USA). NCI-H1581 cells were grown in RPMI 1640 with GlutaMax medium (Gibco, Thermo Fisher Scientific, Leicestershire, UK) with 5% fetal bovine serum (FBS; HyClone, GE Healthcare, Logan, UT, USA). Hs294T and BALB/3T3 cells were grown in Dulbecco’s Modified Eagle Medium (DMEM; Gibco, Thermo Fisher Scientific, Leicestershire, UK) supplemented with 2 mM L-glutamine and 10% FBS (HyClone, GE Healthcare, Logan, UT, USA). MIA PaCa-2 cells were grown in DMEM (Gibco, Thermo Fisher Scientific, Leicestershire, UK) supplemented with 2 mM L-glutamine, 2.5% Horse Serum (Gibco, Thermo Fisher Scientific, Leicestershire, UK), and 10% FBS (HyClone, GE Healthcare, Logan, UT, USA). All culture media were supplemented with antibiotics: 100 U/mL penicillin (Polfa Tarchomin SA, Warsaw, Poland) and 100 µg/mL streptomycin (Sigma-Aldrich Chemie GmbH, Steinheim, Germany); cells were grown at 37 °C in a humid atmosphere with 5% CO2.
(§2) Twenty-four hours prior to the addition of the tested compounds, 2000 cells per well of Balb/3T3, MIA PaCa-2, and Hs294T cell lines and 2500 cells of NCI-H1581 cell line were seeded in 384-well plates (Greiner Bio-One, Kremsmünster, Austria) in an appropriate medium. The studied compounds were added to the cells at 8 different concentrations in a series of dilutions from 100 to 0.00001 µg/mL for 72 h. Cisplatin was applied as a reference compound (Teva Pharmaceuticals, Warsaw, Poland). DMSO (Sigma-Aldrich Chemie GmbH, Steinheim, Germany) was used as solvent control. The DMSO concentrations corresponded to the solvent concentrations in the tested compound solutions. Then, 30 µL per well of ice-cold 50% TCA (trichloroacetic acid, Avantor, Gliwice, Poland) was added to the cells. After one hour of incubation at room temperature (RT) cells were washed five times with water and stained with 0.4% SRB (sulforhodamine B, Sigma-Aldrich Chemie GmbH, Steinheim, Germany). Twenty-five microliters per well of 0.4% solution of SRB in 1% acetic acid (Avantor, Gliwice, Poland) was applied. After 0.5 h of incubation at RT, the unbound dye was washed out with 1% acetic acid. The bound dye in each well was dissolved in 70 µl of 10 mM TRIS (Tris base, Sigma-Aldrich, Chemie GmbH, Steinheim, Germany). A microplate reader (BioTek Synergy H4, Swindon, UK) with Gen5 software was used to read the absorbance at 540 nm. The results are presented as mean IC50 values (concentration of the compound that inhibits cell proliferation by 50%) ± standard deviation. Half-maximal inhibitory concentration (IC50) values were calculated using the Prolab-3 system based on Cheburator 0.4 [22]. Each experiment was performed in triplicate, and three independent repetitions were made for each experiment. Raw data and IC50 values were placed in the supplementary materials.

The test system of assay [2] is BALB/3T3 clone A31. The assay is described as follows: Growth inhibition assay (SRB assay), normal fibroblasts BALB/3T3 clone A31. It counts as cell-based, mouse. The note with it: Mus musculus, BALB/3T3 clone A31, 72 h, mean ± SD. Here is the method: as §1, §2
(The SRB assay estimates cell density from bound dye.)

Assay [3] deals with NCI-H1581. The assay can be described thus: Growth inhibition assay (SRB assay), lung tumor cell line NCI-H1581. It counts as cell-based, human. To be noted: for IC50: Homo sapiens, NCI-H1581, 72 h, 72 h, SRB, mean ± SD; for SI (Selectivity Index): SI = IC50 for normal cell line BALB/3T3 / IC50 for NCI-H1581. As to the method: as §1, §2
Assay [4] concerns Hs294T. The assay can be described thus: Growth inhibition assay (SRB assay), melanoma cell line Hs294T. It counts as cell-based, human. The note with it: Homo sapiens, Hs 294T, 72 h, mean ± SD. Here is the method:
as §1, §2

The mark [5] stands for this setting: MIA PaCa-2, 72 h, read-out: IC50 MIA PaCa-2.
[6] abbreviates: MIA PaCa-2, supplement, 72 h, read-out: IC50 MIA PaCa-2 (raw data).
The mark [7] stands for this setting: normal cell line, read-out: IC50 BALB3T3.
[8] abbreviates: supplement, read-out: IC50 BALB3T3 (raw data).
The mark [9] stands for this setting: supplement, read-out: IC50 NCI-H1581 (raw data).
The mark [10] stands for this setting: supplement, read-out: IC50 Hs294T (raw data).

As usually defined, the IC50 is the midpoint of a concentration-inhibition curve.

Like-named read-outs stand apart in the source and are kept apart here.

`C=CC(=O)OCc1cn([C@H]2CN([C@@H](C)c3ccccc3)[C@H]3CC[C@@H]2C3)nn1` [Compound 5, (1-((1S,4R,5R)-2-((S)-1-phenylethyl)-2-azabicyclo[3.2.1]octan-4-yl)-1H-1,2,3-triazol-4-yl)methyl acrylate]: the IC50 in assay [1] (setting [5]) was found to be 86.31 ± 0.35 µM; in assay [1] (setting [6]), 31.63 ± 0.13 µg/mL; in assay [2] (setting [7]), 28.5 ± 22.7 µM; in assay [2] (setting [8]), 10.5 ± 8.31 µg/mL; in assay [3] (read-out: IC50 NCI-H1581) it was 18.8 ± 4.45 µM; in assay [3] (setting [9]), 6.88 ± 1.63 µg/mL. The concentration for half-maximal inhibition (IC50) in assay [4] (read-out: IC50 Hs294T) came to 72.8 ± 9.71 µM; in assay [4] (setting [10]), 26.7 ± 3.56 µg/mL. Also, the “SI (Selectivity Index)” value in assay [3] turned out to be 1.5.
Consider `C[C@@H](c1ccccc1)N1C[C@@H](n2cc(-c3cccc(N)c3)nn2)[C@@H]2CC[C@H]1C2` [Compound 6, 3-(1-((1S,4S,5R)-2-((S)-1-phenylethyl)-2-azabicyclo[3.2.1]octan-4-yl)-1H-1,2,3-triazol-4-yl)aniline], for which the concentration for half-maximal inhibition (IC50) in assay [1] (setting [5]) worked out at 84.4 ± 1.04 µM; in assay [1] (setting [6]), 31.5 ± 0.39 µg/mL; in assay [2] (setting [7]), 77.1 ± 1.1 µM; in assay [2] (setting [8]), 28.8 ± 0.41 µg/mL; in assay [3] (read-out: IC50 NCI-H1581), 30.8 ± 3.51 µM; in assay [3] (setting [9]), 11.5 ± 1.31 µg/mL. Moreover, the concentration for half-maximal inhibition (IC50) in assay [4] (read-out: IC50 Hs294T) came out at 74.5 ± 14.9 µM; in assay [4] (setting [10]), 27.8 ± 5.58 µg/mL. In addition, in assay [3], the “SI (Selectivity Index)” value was 2.5.
As to `C[C@@H](c1ccccc1)N1C[C@H](n2cc(-c3cccc(N)c3)nn2)[C@@H]2CC[C@H]1C2` [Compound 7, 3-(1-((1S,4R,5R)-2-((S)-1-phenylethyl)-2-azabicyclo[3.2.1]octan-4-yl)-1H-1,2,3-triazol-4-yl)aniline], the IC50 in assay [1] (setting [5]) amounted to 77 ± 1.98 µM; in assay [1] (setting [6]) it was 28.7 ± 0.74 µg/mL; in assay [2] (setting [7]) it was 52.7 ± 6.16 µM; in assay [2] (setting [8]), 19.7 ± 2.3 µg/mL; in assay [3] (read-out: IC50 NCI-H1581), 7.39 ± 1.15 µM; in assay [3] (setting [9]), 2.76 ± 0.43 µg/mL. In addition, the values for the half-inhibitory concentration (IC50) in assay [4] (read-out: IC50 Hs294T) and in assay [4] (setting [10]) were 65.9 ± 8.3 µM and 24.6 ± 3.1 µg/mL, respectively. Besides, in assay [3], the “SI (Selectivity Index)” value was determined as 7.
In the case of `C[C@@H](c1ccccc1)N1C[C@@H](n2cc(COCc3ccccc3)nn2)[C@@H]2CC[C@H]1C2` [Compound 8, (1S,4S,5R)-4-(4-((benzyloxy)methyl)-1H-1,2,3-triazol-1-yl)-2-((S)-1-phenylethyl)-2-azabicyclo[3.2.1]octane], the 50% inhibitory concentration (IC50) in assay [1] (setting [5]) amounted to 79.12 ± 0.5 µM; in assay [1] (setting [6]), 31.85 ± 0.2 µg/mL; in assay [2] (setting [7]), 61.5 ± 3.28 µM; in assay [2] (setting [8]), 24.7 ± 1.32 µg/mL; in assay [3] (read-out: IC50 NCI-H1581) it was 15.48 ± 0.12 µM; in assay [3] (setting [9]), 6.23 ± 0.05 µg/mL. Moreover, the figures for the IC50 in assay [4] (read-out: IC50 Hs294T) and in assay [4] (setting [10]) were 73.8 ± 10.1 µM and 29.7 ± 4.07 µg/mL, respectively. In addition, in assay [3], the “SI (Selectivity Index)” value amounted to 4.
As for `C[C@@H](c1ccccc1)N1C[C@H](n2cc(COCc3ccccc3)nn2)[C@@H]2CC[C@H]1C2` [Compound 9, (1S,4R,5R)-4-(4-((benzyloxy)methyl)-1H-1,2,3-triazol-1-yl)-2-((S)-1-phenylethyl)-2-azabicyclo[3.2.1]octane], the concentration for half-maximal inhibition (IC50) in assay [1] (setting [5]) was 76.5 ± 4.37 µM; in assay [1] (setting [6]) it was 30.8 ± 1.76 µg/mL; in assay [2] (setting [7]), 50 ± 3.25 µM; in assay [2] (setting [8]) it was 20.1 ± 1.31 µg/mL; in assay [3] (read-out: IC50 NCI-H1581), 8.52 ± 1.39 µM; in assay [3] (setting [9]), 3.43 ± 0.56 µg/mL. The IC50 in assay [4] (read-out: IC50 Hs294T) amounted to 70.9 ± 5.86 µM; in assay [4] (setting [10]) it was 28.5 ± 2.36 µg/mL. Further, the “SI (Selectivity Index)” value in assay [3] turned out to be 6.
